US8053574B2, “Organic compounds” (Novartis AG, priority 2007, dated 2011)

target: PI3K γ (Homo sapiens, UniProt P48736); assay: PI3 kinase phosphorylation assay (Biological Method 1), Ki γ; assay type: biochemical; conditions: Table 2, compounds of formula X
Protocol: The compounds of the invention were synthesized according to the examples provided above. PI3K inhibitory (IC50) values of the compounds were determined according to Biological Method 1.
Assay 1: Homogenous Solution Phase Assay
Compounds to be tested are dissolved in DMSO and directly distributed into 384-well flashplates at 1.25 μL per well. To start the reaction, 20 μL of 6 nM PI3 kinase are added into each well followed by 20 μL of 400 nM ATP containing a trace of radiolabeled ATP and 900 nM 1-alpha-phosphatidylinositol (PI). The plates are briefly centrifuged to remove any air gap. The reaction is performed for 15 minutes and then stopped by the addition of 20 μL of 100 mM EDTA. The stopped reaction is incubated overnight at RT to allow the lipid substrate to bind by hydrophobic interaction to the surface of the flashplate. The liquid in the wells is then washed away, and the labeled substrate is detected with scintillation counting.
Assay 2: One Step Solid Phase Assay
This method is similar to Assay 1 except that the lipid substrate (1-alpha-phosphatidylinositol (PI)) is first dissolved in a coating buffer and incubated on flashplate at room temperature overnight to allow the lipid substrate to bind by hydrophobic interaction to the surface of the flashplate. Unbound substrate is then washed away. On the day of assay, 20 μL of 6 nM PI3 kinase are added into each well followed by 20 μL of 400 nM ATP containing trace of radiolabeled ATP. Compounds are added together with enzyme and ATP to the lipid-coated plates. The plates are briefly centrifuged to remove any air gap. The reaction is performed for two to three hours. The reaction is stopped by addition of 20 μL of 100 mM EDTA or by immediate plate washing. Phosphorylated lipid substrate is detected by scintillation counting.
Assay 3: ATP Depletion Assay
Compounds to be tested are dissolved in DMSO and directly distributed into a black 384-well plate at 1.25 μL per well. To start the reaction, 25 μL of 10 nM PI3 kinase and 5 μg/mL 1-alpha-phosphatidylinositol (PI) are added into each well followed by 25 μL of 2 μM ATP. The reaction is performed until approx 50% of the ATP is depleted, and then stopped by the addition of 25 μL of KinaseGlo solution. The stopped reaction is incubated for 5 minutes and the remaining ATP is then detected via luminescence.

Chain of PI3K γ (P48736 whole entry): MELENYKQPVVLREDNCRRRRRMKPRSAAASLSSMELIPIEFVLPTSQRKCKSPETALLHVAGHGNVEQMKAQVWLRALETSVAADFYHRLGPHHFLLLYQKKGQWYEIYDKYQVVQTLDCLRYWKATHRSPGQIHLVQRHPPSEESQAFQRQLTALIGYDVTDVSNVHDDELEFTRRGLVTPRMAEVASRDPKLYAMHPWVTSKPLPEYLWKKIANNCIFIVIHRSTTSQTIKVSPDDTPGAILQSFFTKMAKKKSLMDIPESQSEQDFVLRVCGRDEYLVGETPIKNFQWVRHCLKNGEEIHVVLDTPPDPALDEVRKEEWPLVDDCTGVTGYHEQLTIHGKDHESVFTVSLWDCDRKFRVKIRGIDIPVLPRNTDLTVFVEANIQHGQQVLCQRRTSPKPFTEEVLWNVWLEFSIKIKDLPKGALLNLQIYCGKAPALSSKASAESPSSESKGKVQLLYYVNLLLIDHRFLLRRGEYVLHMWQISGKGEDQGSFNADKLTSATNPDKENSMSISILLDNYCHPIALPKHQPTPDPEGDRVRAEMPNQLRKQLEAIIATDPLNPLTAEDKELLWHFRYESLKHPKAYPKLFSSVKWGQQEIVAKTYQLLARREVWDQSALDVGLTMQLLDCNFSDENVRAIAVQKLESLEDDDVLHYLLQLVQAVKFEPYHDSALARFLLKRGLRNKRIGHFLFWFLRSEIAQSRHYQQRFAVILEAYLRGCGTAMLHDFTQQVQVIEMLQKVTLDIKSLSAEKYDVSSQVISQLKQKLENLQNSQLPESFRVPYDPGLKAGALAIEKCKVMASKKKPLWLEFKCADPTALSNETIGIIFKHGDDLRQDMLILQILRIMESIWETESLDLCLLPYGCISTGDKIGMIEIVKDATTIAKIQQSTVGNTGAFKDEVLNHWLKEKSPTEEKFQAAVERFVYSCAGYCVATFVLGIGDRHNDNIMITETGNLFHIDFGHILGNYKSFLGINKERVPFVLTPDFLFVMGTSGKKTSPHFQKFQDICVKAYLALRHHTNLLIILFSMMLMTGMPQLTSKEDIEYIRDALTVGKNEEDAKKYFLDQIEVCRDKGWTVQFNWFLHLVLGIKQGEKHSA

| Ki | SMILES |
| --- | --- |
| 0.002 µM | O=C(NCCc1nnn(CCF)n1)Nc1cn2cc(-c3cncc(C(F)(F)F)c3)ccc2n1 [Example 1-35, 1-{2-[2-(2-Fluoro-ethyl)-2H-tetrazol-5-yl]-ethyl}-3-[6-(5-trifluoromethyl-pyridin-3-yl)-imidazo[1,2-a]pyridin-2-yl]-urea] |
| 0.012 µM | Cn1nnc(CCNC(=O)Nc2cn3cc(-c4cncc(C(F)(F)F)c4)ccc3n2)n1 [Example 1-38, 1-[2-(2-Methyl-2H-tetrazol-5-yl)-ethyl]-3-[6-(5-trifluoromethyl-pyridin-3-yl)-imidazo[1,2-a]pyridin-2-yl]-urea] |
| 1.12 µM | Cc1ccccc1-c1cncc(-c2ccc3nc(NC(=O)NCCc4nnn(C(C)C)n4)cn3c2)c1 [Example 1-39, 1-[2-(2-Isopropyl-2H-tetrazol-5-yl)-ethyl]-3-[6-(5-o-tolyl-pyridin-3-yl)-imidazo[1,2-a]pyridin-2-yl]urea] |
| 0.456 µM | CCn1nnc(CCNC(=O)Nc2cn3cc(-c4cnn(C)c4)ccc3n2)n1 [Example 1-40, 1-[2-(2-Ethyl-2H-tetrazol-5-yl)-ethyl]-3-[6-(1-methyl-1H-pyrazol-4-yl)-imidazo[1,2-a]pyridin-2-yl]urea] |
| 0.158 µM | CCn1nnc(CCNC(=O)Nc2cn3cc(-c4cncc5ccccc45)ccc3n2)n1 [Example 1-42, 1-[2-(2-Ethyl-2H-tetrazol-5-yl)-ethyl]-3-(6-isoquinolin-4-yl-imidazo[1,2-a]pyridin-2-yl)-urea] |
| 0.008 µM | CC(=O)c1cncc(-c2ccc3nc(NC(=O)NCCc4nnn(C(C)C)n4)cn3c2)c1 [Example 1-43, 1-[6-(5-Acetyl-pyridin-3-yl)-imidazo[1,2-a]pyridin-2-yl]-3-[2-(2-isopropyl-2H-tetrazol-5-yl)-ethyl]urea] |
| 0.911 µM | CCn1nnc(CCNC(=O)Nc2cn3cc(Br)ccc3n2)n1 [Example 1-45, 1-(6-Bromo-imidazo[1,2-a]pyridin-2-yl)-3-[2-(2-ethyl-2H-tetrazol-5-yl)-ethyl]-urea] |

| SMILES | Ki |
| --- | --- |
| Cc1cc(NC(=O)CCNC(=O)Nc2cn3cc(Br)ccc3n2)no1 [Example 1-46, 3-[3-(6-Bromo-imidazo[1,2-a]pyridin-2-yl)-ureido]-N-(5-methyl-isoxazo-3-yl)-propionamide] | 4.98 µM |

same assay, conditions: Table 3, compounds of formula XI

| SMILES | Ki |
| --- | --- |
| COc1ccc(-c2ccc3nc(NC(=O)NCCN(C)C)sc3c2)cn1 [Example 2-3, 1-(2-Dimethylamino-ethyl)-3-[6-(6-methoxy-pyridin-3-yl)-benzothiazol-2-yl]urea] | 0.038 µM |
| COc1ccc(-c2ccc3nc(NC(=O)NCCO)sc3c2)cn1 [Example 2-4, 1-(2-Hydroxy-ethyl)-3-[6-(6-methoxy-pyridin-3-yl)-benzothiazol-2-yl]-urea] | 0.038 µM |
| COc1ccc(-c2ccc3nc(NC(=O)NCc4cccnc4)sc3c2)cn1 [Example 2-5, 1-[6-(6-Methoxy-pyridin-3-yl)-benzothiazol-2-yl]-3-pyridin-3-ylmethyl-urea] | 0.149 µM |
| CCNC(=O)Nc1nc2ccc(-c3ccc(OC)nc3)cc2s1 [Example 2-6, 1-Ethyl-3-[6-(6-methoxy-pyridin-3-yl)-benzothiazol-2-yl]urea] | 0.406 µM |

Other lines, results leading:

| Ki | SMILES |
| --- | --- |
| 0.008 µM | O=C(NCCc1nnn(CCF)n1)Nc1nc2ccc(-c3cccnc3)cc2s1 [Example 2-1, 1-{2-[2-(2-Fluoro-ethyl)-2H-tetrazol-5-yl]-ethyl}-3-(6-pyridin-3-yl-benzothiazol-2-yl)-urea] |
| 0.02 µM | COc1ccc(-c2ccc3nc(NC(=O)NCCc4nnn(CCF)n4)sc3c2)cn1 [Example 2-2, 1-{2-[2-(2-Fluoro-ethyl)-2H-tetrazol-5-yl]-ethyl}-3-[6-(6-methoxy-pyridin-3-yl)-benzothiazol-2-yl]-urea] |
| 0.0055 µM | O=C(NCCc1nnn(CCF)n1)Nc1nc2ccc(-c3cncc(C(=O)N4CCOCC4)c3)cc2s1 [Example 2-7, 1-{2-[2-(2-Fluoro-ethyl)-2H-tetrazol-5-yl]-ethyl}-3-{6-[5-(morpholine-4-carbonyl)-pyridin-3-yl]-benzothiazol-2-yl}-urea] |
| 0.016 µM | O=C(NCCc1nnn(CCF)n1)Nc1nc2ccc(-c3cncc(C(F)(F)F)c3)cc2s1 [Example 2-8, 1-{2-[2-(2-Fluoro-ethyl)-2H-tetrazol-5-yl]-ethyl}-3-[6-(5-trifluoromethyl-pyridin-3-yl)-benzothiazol-2-yl]urea] |
| 0.06 µM | CCn1nnc(CCNC(=O)Nc2nc3ccc(-c4cncc(C(F)(F)F)c4)cc3s2)n1 [Example 2-9, 1-[2-(2-Ethyl-2H-tetrazol-5-yl)-ethyl]-3-[6-(5-trifluoromethyl-pyridin-3-yl)-benzothiazol-2-yl]-urea] |
| 0.092 µM | CC(C)n1nnc(CCNC(=O)Nc2nc3ccc(-c4cncc(C(F)(F)F)c4)cc3s2)n1 [Example 2-10, 1-[2-(2-Isopropyl-2H-tetrazol-5-yl)-ethyl]-3-[6-(5-trifluoromethyl-pyridin-3-yl)-benzothiazol-2-yl]urea] |
| 0.242 µM | CCc1nnn(CCNC(=O)Nc2nc3ccc(-c4cncc(C(F)(F)F)c4)cc3s2)n1 [Example 2-11, 1-[2-(5-Ethyl-tetrazol-2-yl)-ethyl]-3-[6-(5-trifluoromethyl-pyridin-3-yl)-benzothiazol-2-yl]urea] |
| 0.142 µM | CCn1cnc(CCNC(=O)Nc2nc3ccc(-c4cncc(C(F)(F)F)c4)cc3s2)c1 [Example 2-12, 1-[2-(1-Ethyl-1H-imidazol-4-yl)-ethyl]-3-[6-(5-trifluoromethyl-pyridin-3-yl)-benzothiazol-2-yl]-urea] |

same assay, conditions: Table 4

| Ki | SMILES |
| --- | --- |
| 0.012 µM | CCn1nnc(CCNC(=O)Nc2cn3nc(-c4cncc(C(F)(F)F)c4)ccc3n2)n1 [Example 3-1, 1-[2-(2H-Ethyl-2H-tetrazole-5-yl)-ethyl]-3-[6-(5-trifluoromethyl-pyridin-3-yl)-imidazo[1,2-b]pyridazin-2-yl]-urea] |
| 0.031 µM | CCn1nnc(CCNC(=O)Nc2cn3nc(-c4cncc(C#N)c4)ccc3n2)n1 [Example 3-2, 1-[6-(5-Cyano-pyridin-3-yl)-imidazo[1,2-b]pyridazin-2-yl]-3-[2-(2-ethyl-2H-tetrazol-5-yl)-ethyl]-urea] |
| 0.031 µM | CCn1nnc(CCNC(=O)Nc2cn3nc(-c4cccnc4)ccc3n2)n1 [Example 3-3, 1-[6-(pyridin-3-yl)-imidazo[1,2-b]pyridazin-2-yl]-3-[2-(2-ethyl-2H-tetrazol-5-yl)-ethyl]-urea] |
| 0.027 µM | CCn1nnc(CCNC(=O)Nc2cn3cc(-c4cncc(C(F)(F)F)c4)ncc3n2)n1 [Example 3-4, 1-[2-(2-Ethyl-2H-tetrazol-5-yl)-ethyl]-3-[6-(5-trifluoromethyl-pyridin-3-yl)-imidazo[1,2-a]pyrazin-2-yl]-urea] |
| 0.098 µM | CCn1nnc(CCNC(=O)Nc2cn3cc(-c4cncc(C#N)c4)ncc3n2)n1 [Example 3-5, 1-[6-(5-Cyano-pyridin-3-yl)-imidazo[1,2-a]pyrazin-2-yl]-3-[2-(2-ethyl-2H-tetrazol-5-yl)-ethyl]-urea] |
| 0.082 µM | CCn1nnc(CCNC(=O)Nc2cn3cc(-c4cccnc4)ncc3n2)n1 [Example 3-6, 1-[2-(2-Ethyl-2H-tetrazol-5-yl)-ethyl]-3-(6-pyridin-3-yl-imidazo[1,2-a]pyrazin-2-yl)-urea] |
| 0.376 µM | CCn1nnc(CCNC(=O)Nc2nc3ccc(-c4cncc(C(F)(F)F)c4)cn3n2)n1 [Example 3-7, 1-[2-(2-Ethyl-2H-tetrazol-5-yl)-ethyl]-3-[6-(5-trifluoromethyl-pyridin-3-yl)-[1,2,4]triazolo[1,5-a]pyridin-2-yl]-urea] |
| 0.099 µM | CCn1nnc(CCNC(=O)Nc2nc3ccc(-c4cccnc4)cn3n2)n1 [Example 3-8, 1-[2-(2-Ethyl-2H-tetrazol-5-yl)-ethyl]-3-(6-pyridin-3-yl-[1,2,4]triazolo[1,5-a]pyridin-2-yl)-urea] |
| 0.418 µM | CCn1nnc(CCNC(=O)Nc2nc3ccc(-c4cncc(C#N)c4)cn3n2)n1 [Example 3-9, 1-[6-(5-Cyano-pyridin-3-yl)-[1,2,4]triazolo[1,5-a]pyridin-2-yl]-3-[2-(2-ethyl-2H-tetrazol-5-yl)-ethyl]-urea] |
| 0.884 µM | CCn1nnc(CCNC(=O)Nc2cn3cc(-c4cncc(C(F)(F)F)c4)cnc3n2)n1 [Example 3-10, 1-[2-(2-Ethyl-2H-tetrazol-5-yl)-ethyl]-3-[6-(5-trifluoromethyl-pyridin-3-yl)-imidazo[1,2-a]pyrimnidin-2-yl]-urea] |
| 0.502 µM | CCn1nnc(CCNC(=O)Nc2nc3cc(-c4cccnc4)ccn3n2)n1 [Example 3-15, 1-[2-(2-Ethyl-2H-tetrazol-5-yl)-ethyl]-3-(7-pyridin-3-yl-[1,2,4]triazolo[1,5-a]pyridin-2-yl)-urea] |
| 0.64 µM | CCn1nnc(CCNC(=O)Nc2nc3cc(-c4cncc(C(F)(F)F)c4)ccn3n2)n1 [Example 3-16, 1-[2-(2-Ethyl-2H-tetrazol-5-yl)-ethyl]-3-[7-(5-trifluoromethyl-pyridin-3-yl)-[1,2,4]triazolo[1,5-a]pyridin-2-yl]-urea] |
